# Data: patent publication US12465609B2, “Methods of treating patients suffering from a disease condition or disorder that is associated with an increased glutamate level” (veriNOS operations GmbH, priority 2022, dated 2025)
# Assay: Safety and adverse event analyses, NOSTRA III
# Type: in vivo
# Method: Safety analyses was performed using standard descriptive methods.
# The total number of treatment-emergent adverse events (TEAE) and the total number of patients with TEAEs, the total number of TEAEs related to the study drug (certain, probable, possible), the total number of patients with TEAEs related to the study drug, the total number of TEAEs and the total number of patients with serious TEAEs, the total number of patients with TEAEs leading to discontinuation of study treatment and the total number of patients with TEAEs leading to death were summarised by treatment arm.
smiles,measurement,setting,value
"C[C@H](O)[C@H](O)C1CNc2nc(N)nc(N)c2N1 (mixture of isomers) [Ronopterin, 4-Amino-(6R,S)-5,6,7,8-tetrahydro-L-biopterin]",number of renal AEs,Ronopterin:placebo 11:3,11
same,tolerability of study treatment,no significant new safety findings,well-tolerated
same,proportion of patients with ICP increased (AE),placebo 11.7%,23.9%
same,number of patients with ICP increased (AE),placebo 13,27 patients
same,number of adverse events (AEs) and serious adverse events (SAEs) compared to the placebo groups,related AE/SAEs low and comparable,slightly higher number
